Non-standard residues stand in square brackets, D forms with d. hArg = N=C(N)NCCCC[C@H](N)C(=O)O; Cit = NC(=O)NCCC[C@H](N)C(=O)O; Orn = NCCC[C@H](N)C(=O)O
Key:
[1] = tested on: murine E^k MHC class II allele; test: antigenic peptide prepulse assay, E^k allele (fixed APC prepulsed with PGCC81-104); type: cell-based; settings: for Activity in antigenic peptide prepulse assay, E^k (baseline = 1.0): prepulse 1.25 μM antigenic peptide
Experimental: (§1) In a second type of assay, the “peptide prepulse assay”, the antigenic peptide is incubated with paraformaldehyde-fixed APC for 6 h. The APC are washed and incubated for 24 h with the AE101 series homolog and the T cell hybridoma specific for the antigenic peptide. After that incubation, an aliquot of the culture supernatant is transferred to a second culture to measure the relative degree of T hybridoma stimulation, as reflected in the effect of released interleukins on the growth of an interleukin-dependent, indicator cell line, as described above.
(§2) The two above described assays measure different aspects of the molecular mechanism of the AE101 series of peptides. In the “simultaneous assay”, AE101 series peptides are thought to induce the release of endogenously bound peptides and to permit the binding of the second, specific antigenic peptide which is relatively abundant in the culture fluid. The AE101 series peptides enhance antigenic peptide-specific T cell responses in simultaneous assays. In the “peptide prepulse” assay, the specific antigenic peptide becomes bound to MHC class II molecules on the surface of the fixed APC during the 6 h prepulse incubation. The effect of the AE101 series homologs is then thought to release that antigenic peptide, resulting in an apparent suppression of the immune response.
(§3) The AE101 series peptides are thought to contact the MHC class II molecules at a discrete site outside the antigenic peptide-binding groove. AE101 peptide binding to this “Ii-KEY” site is thought to induce a conformational change in the MHC class II molecules accelerating the dissociation of previously bound antigenic peptide. […] The AE101 series peptides thus inhibit antigenic peptide-specific T cell responses in the “peptide prepulse” assays.
(§4) Antigenic peptide-specific T cell activation was measured by the following procedure. Mitomycin C-treated A20 cells (A^dE^d) or CH27 cells APC (A^kE^k) were generated by incubating 5×10^6 cells/mL for 20 min at 37° C. with 0.025 mg/mL of mitomycin C (Sigma) in Dulbecco's Modified Eaglel's Medium (DMEM)/10 mM N-2(hydroxyethylpiperazine-N″[2-ethanesulfonic acid] (HEPES), followed by two washes with four volumes of DMEM-5% fetal calf serum (FCS), 10 mM HEPES. Fixed APC were generated by treating 1×10^6 cells/mL for 5 min with 0.5% paraformaldehyde in PBS (pH 7.2), followed by two washes with four volumes of DMEM-10% FCS, 10 mM HEPES. T cell hybridomas were irradiated 2200 rads before each assay.
(§5) The “peptide prepulse assay” was carried out under essentially the same conditions as described for the “simultaneous assay” with the following modifications. Fixed APC were first incubated for 6 h at 1×10^6 cells/mL in complete DMEM-5% FCS in 24-well microculture plates (1 mL/well) with antigenic peptide, followed by four washes with 10 volumes of DMEM-5% FCS. The cells were then exposed to varying concentrations of AE101 series peptide (64 μM, 16 μM, 4 μM, and 1 μM) for 24 h in the presence of the T cell hybridoma specific to the antigenic peptide. Interleukin release from these cultures was measured by proliferation of HT-2 cells to interleukins in supernatants transferred from the primary culture. Generally, a single dose of 64 μM of each AE101 series peptide was used. The baseline T cell response was measured by culturing T hybridoma cells with the antigenic peptide-prepulsed APC in the absence of AE101 series peptides.
Table 19: Activities of C-terminal truncation analogs of AE101 in an antigenic peptide prepulse assay. […] Paraformaldehyde-treated APC (fixed APC) expressing MHC class II molecules were incubated with antigenic peptide for 6 h (HEL106-116 for E^d and PGCC81-104 for E^k). After this incubation, the prepulsed APC were washed and cultured with T hybridoma cells and AE101 series peptides. The antigenic peptide concentration during the prepulse was 12 μM for Ed and 20 μM for E^k. The AE101 series peptide concentrations were 64 μM for E^d and 16 μM for E^k. […]

[2] = target: T1, murine E^d MHC class II allele (Mus musculus, UniProt P01904+P01915); test: antigenic peptide prepulse assay, E^d allele (fixed APC prepulsed with HEL106-116); type: cell-based; set-up: The A20 and CH27 B cell lymphoma lines express H-2^d and H-2^k alleles, respectively; endogenous in cells; host or cells: A20 B cell lymphoma (mitomycin C-treated or paraformaldehyde-fixed)
T1 sequence (P01904 26-255): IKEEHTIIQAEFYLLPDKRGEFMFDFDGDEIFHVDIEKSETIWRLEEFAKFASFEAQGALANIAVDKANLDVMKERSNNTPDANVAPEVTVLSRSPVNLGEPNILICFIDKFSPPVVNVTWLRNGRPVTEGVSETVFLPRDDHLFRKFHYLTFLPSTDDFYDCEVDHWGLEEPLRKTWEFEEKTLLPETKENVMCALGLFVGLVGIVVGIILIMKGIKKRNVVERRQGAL
T1 sequence (P01915 27-264 limits assumed): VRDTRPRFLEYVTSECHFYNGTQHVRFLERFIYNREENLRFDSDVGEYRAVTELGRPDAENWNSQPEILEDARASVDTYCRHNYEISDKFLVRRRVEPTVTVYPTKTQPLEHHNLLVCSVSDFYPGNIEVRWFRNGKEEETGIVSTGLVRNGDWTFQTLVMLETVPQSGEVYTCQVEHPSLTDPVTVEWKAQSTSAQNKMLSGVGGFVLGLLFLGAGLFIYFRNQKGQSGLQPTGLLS
Experimental: as §1, §2, §3, §4, §5
[…] […] Paraformaldehyde-treated APC (fixed APC) expressing MHC class II molecules were incubated with antigenic peptide for 6 h (HEL106-116 for E^d and PGCC81-104 for E^k). After this incubation, the prepulsed APC were washed and cultured with T hybridoma cells and AE101 series peptides. […] The AE101 series peptide concentrations were 64 μM for E^d and 16 μM for E^k. The dilutions of supernatant taken into the HT-2 cell assay were 1:4 for Ed and 1:2 for E^k.

[3] = Table 25, AE peptide 64 μM, prepulse 2.5 μM antigenic peptide, supernatant 1:10
[4] = Table 25, AE peptide 64 μM, prepulse 24 μM antigenic peptide, supernatant 1:4
[5] = Table 24, AE peptide 64 μM, prepulse 0.625 μM antigenic peptide, supernatant 1:8
[6] = Table 24, AE peptide 64 μM, prepulse 24 μM antigenic peptide, supernatant 1:4
[7] = Table 20, AE peptide 16 μM, prepulse 20 μM antigenic peptide, supernatant 1:2
[8] = Table 20, AE peptide 64 μM, prepulse 3 μM antigenic peptide, supernatant 1:2
[9] = Table 26, AE peptide 64 μM, supernatant 1:8
[10] = Table 26, AE peptide 64 μM, prepulse 24 μM antigenic peptide, supernatant 1:2
[11] = Table 22, AE peptide 16 μM, prepulse 20 μM antigenic peptide, supernatant 1:2
[12] = Table 22, AE peptide 64 μM, prepulse 6 μM antigenic peptide, supernatant 1:8

Ac-LRLK HArg PK-NH2 [AE341]
Activity in antigenic peptide prepulse assay, E^k (baseline = 1.00) [1, 3]: 1.10 | Activity in antigenic peptide prepulse assay, E^d (baseline = 1.00) [2, 4]: 0.12

Ac-ARNKNPK-NH2 [AE346]
Activity in antigenic peptide prepulse assay, E^k (baseline = 1.00) [1, 3]: 0.77 | Activity in antigenic peptide prepulse assay, E^d (baseline = 1.00) [2, 4]: 0.65

Ac-LRLKyPK-NH2 [AE308]
Activity in antigenic peptide prepulse assay, E^k (baseline = 1.00) [1, 5]: 0.63 | Activity in antigenic peptide prepulse assay, E^d (baseline = 1.00) [2, 6]: 0.93

Ac-Y N MKLPKSAK-NH2 [AE137]
Activity in antigenic peptide prepulse assay, E^k (baseline = 1.00) [1, 7]: 0.72 | Activity in antigenic peptide prepulse assay, E^d (baseline = 1.00) [2, 8]: 0.57

Ac-LRMK Y PK-NH2 (Ac-LRMKYPK-NH2; not fully specified; printed as Ac-LRMK Y PK-NH2) [AE235]
Activity in antigenic peptide prepulse assay, E^k (baseline = 1.00) [1, 5]: 0.80 | Activity in antigenic peptide prepulse assay, E^k (baseline = 1.00) [1, 3]: 0.76 | Activity in antigenic peptide prepulse assay, E^k (baseline = 1.0) [1, 9]: 0.60 | T cell response relative to baseline without AE peptide (None = 1.0), E^k ([1]; Table 27, antigenic peptide prepulse 1.25 μM, AE101 series peptide 64 μM, HT-2 supernatant dilution 1:8): 0.83 | Activity in antigenic peptide prepulse assay, E^k (baseline = 1.0) ([1]; Table 28, AE peptide 64 μM, supernatant 1:4): 0.80 | Activity in antigenic peptide prepulse assay, E^d (baseline = 1.00) [2, 6]: 0.30 | Activity in antigenic peptide prepulse assay, E^d (baseline = 1.00) [2, 4]: 0.25 | Activity in antigenic peptide prepulse assay, E^d (baseline = 1.0) [2, 10]: 0.23 | T cell response relative to baseline without AE peptide (None = 1.0), E^d ([2]; Table 27, antigenic peptide prepulse 24 μM, AE101 series peptide 64 μM, HT-2 supernatant dilution 1:8): 0.40 | Activity in antigenic peptide prepulse assay, E^d (baseline = 1.0) ([2]; Table 28, AE peptide 64 μM, prepulse 24 μM antigenic peptide, supernatant 1:4): 0.30

Ac-LRMK HArg PK-NH2 (Ac-LRMK[hArg]PK-NH2; SMILES CSCC[C@H](NC(=O)[C@H](CCCNC(=N)N)NC(=O)[C@H](CC(C)C)NC(C)=O)C(=O)N[C@@H](CCCCN)C(=O)N[C@@H](CCCCNC(=N)N)C(=O)N1CCC[C@H]1C(=O)N[C@@H](CCCCN)C(N)=O) [AE227]
Activity in antigenic peptide prepulse assay, E^k (baseline = 1.00) [1, 3]: 0.87 | Activity in antigenic peptide prepulse assay, E^d (baseline = 1.00) [2, 4]: 0.28

Ac-LR HArg KLPK-NH2 [AE197]
Activity in antigenic peptide prepulse assay, E^k (baseline = 1.0) [1, 9]: 0.96 | Activity in antigenic peptide prepulse assay, E^d (baseline = 1.0) [2, 10]: 0.32

Ac-LRLKWPK-NH2 [AE309]
Activity in antigenic peptide prepulse assay, E^k (baseline = 1.00) [1, 5]: 0.81 | Activity in antigenic peptide prepulse assay, E^k (baseline = 1.00) [1, 3]: 0.93 | Activity in antigenic peptide prepulse assay, E^k (baseline = 1.0) [1, 9]: 0.98 | Activity in antigenic peptide prepulse assay, E^d (baseline = 1.00) [2, 6]: 0.44 | Activity in antigenic peptide prepulse assay, E^d (baseline = 1.00) [2, 4]: 0.48 | Activity in antigenic peptide prepulse assay, E^d (baseline = 1.0) [2, 10]: 0.25

Ac-LR m KLPK-NH2 [AE162]
Activity in antigenic peptide prepulse assay, E^k (baseline = 1.00) [1, 11]: 0.61 | Activity in antigenic peptide prepulse assay, E^d (baseline = 1.00) [2, 12]: 0.28

Ac-LRMKLP[Cit]-NH2 [AE241]
Activity in antigenic peptide prepulse assay, E^k (baseline = 1.0) [1, 9]: 0.99 | Activity in antigenic peptide prepulse assay, E^d (baseline = 1.0) [2, 10]: 0.70

Ac-YRMKL hydrP KSAK-NH2 (Ac-YRMKL[hydrP]KSAK-NH2) [AE143]
Activity in antigenic peptide prepulse assay, E^k (baseline = 1.00) ([1]; Table 21, AE peptide 16 μM, prepulse 20 μM antigenic peptide, supernatant 1:2): 0.10 | Activity in antigenic peptide prepulse assay, E^d (baseline = 1.00) ([2]; Table 21, AE peptide 64 μM, prepulse 24 μM antigenic peptide, supernatant 1:8): 0.18

Ac-Y F MKLPKSAK-NH2 [AE139]
Activity in antigenic peptide prepulse assay, E^k (baseline = 1.00) [1, 7]: 0.38 | Activity in antigenic peptide prepulse assay, E^d (baseline = 1.00) [2, 8]: 0.67

Ac-Y D MKLPKSAK-NH2 [AE135]
Activity in antigenic peptide prepulse assay, E^k (baseline = 1.00) [1, 7]: 0.95 | Activity in antigenic peptide prepulse assay, E^d (baseline = 1.00) [2, 8]: 0.70

Ac-YAMKLPKSAK-NH2 [AE121]
Activity in antigenic peptide prepulse assay, E^k (baseline = 1.00) [1, 7]: 0.59 | Activity in antigenic peptide prepulse assay, E^d (baseline = 1.00) [2, 8]: 0.53

Ac-LRMKLP N-NH2 (Ac-LRMKLPN-NH2) [AE246]
Activity in antigenic peptide prepulse assay, E^k (baseline = 1.0) [1, 9]: 0.98 | Activity in antigenic peptide prepulse assay, E^d (baseline = 1.0) [2, 10]: 0.69

Ac-ARMKNPK-NH2 [AE345]
Activity in antigenic peptide prepulse assay, E^k (baseline = 1.00) [1, 3]: 0.86 | Activity in antigenic peptide prepulse assay, E^d (baseline = 1.00) [2, 4]: 0.61

Ac-Y[Orn]MKLPKSAK-NH2 [AE130]
Activity in antigenic peptide prepulse assay, E^k (baseline = 1.00) [1, 7]: 0.66 | Activity in antigenic peptide prepulse assay, E^d (baseline = 1.00) [2, 8]: 0.79

Ac-L[Cit]NKLPK-NH2 [AE343]
Activity in antigenic peptide prepulse assay, E^k (baseline = 1.00) [1, 3]: 0.90 | Activity in antigenic peptide prepulse assay, E^d (baseline = 1.00) [2, 4]: 0.55

Ac-Y L MKLPKSAK-NH2 [AE142]
Activity in antigenic peptide prepulse assay, E^k (baseline = 1.00) [1, 7]: 0.46 | Activity in antigenic peptide prepulse assay, E^d (baseline = 1.00) [2, 8]: 0.86

Ac-YRMK-NH2 [AE117]
Activity in antigenic peptide prepulse assay, E^k (baseline without AE peptide = 1.00) ([1]; Table 19, AE peptide 16 μM, prepulse 20 μM PGCC81-104, supernatant 1:2): 0.09 | Activity in antigenic peptide prepulse assay, E^d (baseline without AE peptide = 1.00) ([2]; Table 19, AE peptide 64 μM, prepulse 12 μM HEL106-116, supernatant 1:4): 0.65

Ac-LRM k LPK-NH2 [AE163]
Activity in antigenic peptide prepulse assay, E^k (baseline = 1.00) [1, 11]: 0.99 | Activity in antigenic peptide prepulse assay, E^d (baseline = 1.00) [2, 12]: 0.39

Ac-L[Cit]MKNPK-NH2 [AE342]
Activity in antigenic peptide prepulse assay, E^k (baseline = 1.00) [1, 3]: 1.10 | Activity in antigenic peptide prepulse assay, E^d (baseline = 1.00) [2, 4]: 0.67

Ac-LR (mL) KyPK-NH2 [AE304]
Activity in antigenic peptide prepulse assay, E^k (baseline = 1.00) [1, 5]: 0.76 | Activity in antigenic peptide prepulse assay, E^d (baseline = 1.00) [2, 6]: 0.78

From patent US6835382B2, “Ii peptide therapeutics to enhance antigen presentation” (University of Massachusetts, priority 1996, dated 2004)
